Results published in patent US5049570A, “Pyridylphenyl nitrogen heterocycle-substituted carbinols and derivatives thereof with anti-inflammatory activity” (Du Pont Merck Pharmaceutical Company, priority 1990, dated 1991).

Tested on: inflammation induced by tetradecanoyl phorbol acetate (TPA), ears of mice
Assay: TPA model: inhibition of tetradecanoyl phorbol acetate (TPA)-induced ear swelling (edema) in mice
Type: in vivo
Parameters: dose or concentration left out as unconfirmed
Settings: Mus musculus, topical, 4 h, applied to the ears in a vehicle such as acetone, edema measured four hours later, read-out: % inhibition of control swelling
Description: One such model is inflammation induced by tetradecanoyl phorbol acetate (TPA), modified from the method of Kuehl et al., Nature, 1977, 265, 170; and Van Arman, Clin. Pharmacol. Ther., 1974, 16, 900. The TPA model mimics many of the inflammatory changes which occur in human diseases such as psoriasis, since elevated levels of inflammatory arachidonic acid metabolites are found and an influx of polymorphonuclear leukocytes is observed.
The test procedure used to evaluate the compounds of formula (I) is as follows: the test compound […] was applied to the ears of mice in an appropriate vehicle, such as acetone, and then TPA, the inflammatory stimulus was applied to the right ear. Four hours later, the edema was measured by removing standard size discs from the ears using a biopsy punch. The weights of the ears were determined, and the suppression of the swelling observed in animals not treated with the test compound was determined.

Row | Structure (SMILES) | inhibition in vivo [%]
1 | OC(Cn1ccnc1)(c1ccc(F)cc1)c1ccc(-c2ccncc2)cc1 (centres unmarked) [Example 1, 1-(4-fluorophenyl)-1-[4-(4-pyridyl)phenyl]-2-(1-imidazolyl)ethanol] | 72
2 | OC(Cn1ccnc1)(c1ccc(-c2ccccn2)cc1)c1ccc(F)cc1F (centres unmarked) [Example 2] | 51
3 | OC(Cn1ccnc1)(c1ccc(F)cc1)c1ccc(-c2ccccn2)cc1 (centres unmarked) [Example 3] | 63
4 | OC(Cn1ccnc1)(c1ccc(-c2cccnc2)cc1)c1ccc(F)cc1F (centres unmarked) [Example 4] | 52
5 | OC(Cn1ccnc1)(c1ccc(-c2ccncc2)cc1)c1ccc(F)cc1F (centres unmarked) [Example 5, 1-(2,4-difluorophenyl)-1-[4-(4-pyridyl)phenyl]-2-(1-imidazolyl)ethanol] | 73
6 | OC(Cn1ccnc1)(c1ccc(F)cc1)c1cccc(-c2ccccn2)c1 (centres unmarked) [Example 6] | 61
7 | OC(Cn1ccnc1)(c1ccc(F)cc1)c1cccc(-c2cccnc2)c1 (centres unmarked) [Example 7] | 64
8 | OC(Cn1ccnc1)(c1ccc(F)cc1)c1cccc(-c2ccncc2)c1 (centres unmarked) [Example 8, 1-(4-fluorophenyl)-1-[3-(4-pyridyl)phenyl]-2-(1-imidazolyl)ethanol] | 69
9 | OC(Cn1ccnc1)(c1ccccc1)c1ccc(-c2ccncc2)cc1 (centres unmarked) [Example 9] | 46
10 | OC(Cn1ccnc1)(c1ccc(-c2ccncc2)cc1)c1ccccc1Cl (centres unmarked) [Example 10] | 63
11 | Cc1ccc(C(O)(Cn2ccnc2)c2ccc(-c3ccncc3)cc2)cc1 (centres unmarked) [Example 11, 1-(4-methylphenyl)-1-[4-(4-pyridyl)phenyl]-2-(1-imidazolyl)ethanol] | 62
12 | COc1ccc(C(O)(Cn2ccnc2)c2ccc(-c3ccncc3)cc2)cc1 (centres unmarked) [Example 12, 1-(4-methoxyphenyl)-1-[4-(4-pyridyl)phenyl]-2-(1-imidazolyl)ethanol] | 74
13 | OC(Cn1ccnc1)(c1ccc(-c2ccncc2)cc1)c1ccc(C(F)(F)F)cc1 (centres unmarked) [Example 21, 1-(4-trifluoromethylphenyl)-1-[4-(4-pyridyl)phenyl]-2-(1-imidazolyl)ethanol] | 66
14 | OC(Cn1ccnc1)(c1ccc(Cl)cc1)c1ccc(-c2ccncc2)cc1 (centres unmarked) [Example 22, 1-(4-chlorophenyl)-1-[4-(4-pyridyl)phenyl]-2-(1-imidazolyl)ethanol] | 79
